In article PMC5802278, “Molecular and cellular mechanisms of HIF prolyl hydroxylase inhibitors in clinical trials” (Chemical Science, 2017):
Where two headings read alike, the source gives them in different places.

Legend:
Type in all cases: biochemical
PHD3 = PHD3 (Homo sapiens, UniProt Q9H6Z9); assay: MALDI-TOF MS PHD hydroxylation assay
Experimental: (§1) Protocols for in vitro PHD1–3 MALDI-TOF MS hydroxylation assays[30] and for the AlphaScreen histone demethylase assays[44] were as reported.
(§2) Although sharing homologous C-terminal catalytic domains, the N-terminal regions of PHD1–3 vary. […] In vitro inhibition assays of the clinical trial PHD inhibitors (and some of their structurally related analogue) against 1 μM recombinant human PHD1–3 were performed.
(§3) Fig. S11. In vitro PHD isoform selectivity profiling of PHD inhibitors. Inhibition of PHD inhibitors against human PHD125 -3 as assayed by MALDI-TOF MS (the protocol is described in Chan et al. ). Eight concentrations were used to obtained dose-response curve for each compound. Data points presented in the graph are mean with standard deviation, n=3. IC50 values (listed in Supplemental Table S3) were calculated using GraphPad Prism® 5.04.
(§4) (1 picture or pasted object on this page, not shown here)

PHD1 = PHD1 (Homo sapiens, UniProt Q96KS0); assay: MALDI-TOF MS PHD hydroxylation assay
Experimental: as §1, §2, §3, §4

OGFOD1 = molecular target: T1, OGFOD1 (Homo sapiens, UniProt Q8N543); assay: MALDI-TOF MS OGFOD1 hydroxylation assay
T1 construct: made in house
T1 sequence (Q8N543 1-542): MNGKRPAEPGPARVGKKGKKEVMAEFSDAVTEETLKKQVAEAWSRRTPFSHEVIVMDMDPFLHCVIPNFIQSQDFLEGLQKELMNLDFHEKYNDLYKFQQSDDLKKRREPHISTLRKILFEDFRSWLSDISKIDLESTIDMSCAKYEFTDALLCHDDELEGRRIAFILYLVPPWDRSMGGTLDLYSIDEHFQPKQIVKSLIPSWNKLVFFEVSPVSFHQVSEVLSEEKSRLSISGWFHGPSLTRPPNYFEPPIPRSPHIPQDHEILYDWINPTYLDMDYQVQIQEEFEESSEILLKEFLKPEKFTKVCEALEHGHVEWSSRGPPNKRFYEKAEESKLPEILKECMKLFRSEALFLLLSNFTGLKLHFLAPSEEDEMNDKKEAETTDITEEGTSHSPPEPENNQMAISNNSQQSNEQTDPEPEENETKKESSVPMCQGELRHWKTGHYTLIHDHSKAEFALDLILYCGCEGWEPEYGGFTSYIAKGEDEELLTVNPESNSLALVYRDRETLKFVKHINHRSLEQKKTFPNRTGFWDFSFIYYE
Experimental: MALDI-TOF MS OGFOD1 hydroxylation assays
Recombinant human OGFOD1 was prepared as reported,11 and stored at -80 °C in 50 mM HEPES (pH 7.5), 150 mM NaCl, 1 mM DTT and 5% (w/v) glycerol after purification with immobilized metal affinity chromatography. Activity assays were performed by determining the extent of hydroxylation of a 20-residue fragment of human RPS23 containing amino acid […]
residues 51-70 (H2N-[…]-CONH2) by matrix-assisted laser desorption/ionisation time-of-flight mass spectrometry (MALDI-TOF MS) using a Waters® Micromass® MALDI micro MX™ mass spectrometer and MassLynx™ 4.1 as described 12.
The optimised hydroxylation assay involved incubation of OGFOD1 (1 μM) with inhibitor (1 % v/v in DMSO) in the presence of Fe(II) (50 μM), 2OG (25 μM), L-ascorbic acid (100 μM) and RPS2351-70 (25 μM) in HEPES (50 mM, pH 7.5) at 37 °C for 15 min. Reagent solution were made as previously reported. (64) Reactions were quenched with formic acid (1 % v/v).
Samples were prepared by mixing reaction mixture (1 μL) with α-cyano-4-hydrocinnamic acid (CHCA) solution (water:acetonitrile 1:1) (1 μL). Dose-response was assessed in 8-point triplicates. Data were analysed using GraphPad Prism 5.04. […]
Fig. S12. In vitro OGFOD1 selectivity profiling of PHD inhibitors. Inhibition of PHD inhibitors against human OGFOD1 as assayed by MALDI11,13 -TOF MS (the protocol is described in the Supplemental Materials and Methods section). No enzyme and DMSO controls were used for the normalisation of RPS23 peptide hydroxylation. Eight concentrations were used to obtained dose-response curve for each compound. Data points presented in the graph are means with standard deviation, n=3. IC50 values (listed in Table 2) were calculated using GraphPad […]
as §4

[1] = 1μM isolated recombinant human PHD3, MALDI-TOF MS, read-out: IC50 PHD3
[2] = 1μM isolated recombinant human PHD1, MALDI-TOF MS, read-out: IC50 PHD1
[3] = isolated recombinant enzyme, 1 μM, read-out: IC50 OGFOD1

Sequence of PHD1 (Q96KS0 whole entry): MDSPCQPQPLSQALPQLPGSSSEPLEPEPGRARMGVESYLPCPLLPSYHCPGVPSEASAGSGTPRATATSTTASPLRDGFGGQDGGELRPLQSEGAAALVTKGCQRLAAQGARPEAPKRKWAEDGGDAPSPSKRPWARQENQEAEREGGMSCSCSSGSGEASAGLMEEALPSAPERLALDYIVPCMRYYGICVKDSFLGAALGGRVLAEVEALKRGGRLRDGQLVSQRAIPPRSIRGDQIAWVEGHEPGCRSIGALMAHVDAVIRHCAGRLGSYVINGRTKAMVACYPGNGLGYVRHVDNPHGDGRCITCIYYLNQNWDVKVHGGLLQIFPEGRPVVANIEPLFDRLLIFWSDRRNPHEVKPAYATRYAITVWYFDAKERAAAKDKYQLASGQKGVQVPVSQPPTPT
Sequence of PHD3 (Q9H6Z9 whole entry): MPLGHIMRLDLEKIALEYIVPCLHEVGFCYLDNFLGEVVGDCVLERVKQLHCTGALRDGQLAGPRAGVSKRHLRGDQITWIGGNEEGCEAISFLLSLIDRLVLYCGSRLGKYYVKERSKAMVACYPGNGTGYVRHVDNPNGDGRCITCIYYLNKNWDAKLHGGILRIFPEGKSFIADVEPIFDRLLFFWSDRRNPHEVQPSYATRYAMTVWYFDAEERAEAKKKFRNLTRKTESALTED

Row | Compound | IC50 (PHD3; [1]) | IC50 (PHD1; [2]) | IC50 (OGFOD1; [3]) | IC50 (PHD3) | IC50 (PHD1) | IC50 (OGFOD1)
1 | CC(C)(C)OC(=O)c1ccc(-n2[nH]cc(-n3ccnn3)c2=O)nc1 [IOX4] | 0.69 µM | 0.55 µM | < 1 µM |  |  | 
2 | O=C(O)CNC(=O)c1ncc(-c2cccc(Cl)c2)cc1O [Vadadustat] | 0.26 µM | 0.84 µM | 1.4 µM |  |  | 
3 | Cc1nc(C(=O)NCC(=O)O)c(O)c2ccc(Oc3ccccc3)cc12 [FG-4592] | 1.32 µM | 1.4 µM | < 1 µM |  |  | 
4 | O=c1c(-n2ccnn2)c[nH]n1-c1cc(N2CCOCC2)ncn1 [Molidustat] | 0.72 µM | 1.45 µM | 5.1 µM |  |  | 
5 | O=C(O)CNC(=O)C1C(=O)N(C2CCCCC2)C(=O)N(C2CCCCC2)C1=O [GSK1278863] |  |  |  | 0.61 µM | 1.5 µM | 2.1 µM
